# Reference: PubChem BioAssay (NCI)
#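 Tested at 5 concentrations; 48 h exposure; 96-well plates; endpoints linearly interpolated, else capped at highest concentration. GI50 = concentration required for 50% inhibition of growth. TGI: total growth inhibition.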
# Legend:
# Assay in all cases: growth of human tumour cells (NCI), 48 h
# SN12C renal = system: SN12C renal
# SF-295 CNS = system: SF-295 CNS
# LOX IMVI melanoma = system: LOX IMVI melanoma
# IGROV1 ovarian = system: IGROV1 ovarian
# TK-10 renal = system: TK-10 renal
# UO-31 renal = system: UO-31 renal
# MCF7 breast = system: MCF7 breast
# SK-MEL-5 melanoma = system: SK-MEL-5 melanoma
# SNB-19 CNS = system: SNB-19 CNS
# HOP-62 NSCLC = system: HOP-62 NSCLC
# SK-MEL-28 melanoma = system: SK-MEL-28 melanoma
# OVCAR-8 ovarian = system: OVCAR-8 ovarian
# M14 melanoma = system: M14 melanoma
# RXF 393 renal = system: RXF 393 renal
# T-47D breast = system: T-47D breast
# PC-3 prostate = system: PC-3 prostate
# HT29 colon = system: HT29 colon
# EKVX NSCLC = system: EKVX NSCLC
# OVCAR-4 ovarian = system: OVCAR-4 ovarian
# BT-549 breast = system: BT-549 breast
# CCRF-CEM leukemia = system: CCRF-CEM leukemia
# KM12 colon = system: KM12 colon
# UACC-62 melanoma = system: UACC-62 melanoma
# K-562 leukemia = system: K-562 leukemia
# RPMI-8226 leukemia = system: RPMI-8226 leukemia
# HOP-92 NSCLC = system: HOP-92 NSCLC
# SK-OV-3 ovarian = system: SK-OV-3 ovarian
# OVCAR-5 ovarian = system: OVCAR-5 ovarian
# HS 578T breast = system: HS 578T breast
# OVCAR-3 ovarian = system: OVCAR-3 ovarian
# HL-60(TB) leukemia = system: HL-60(TB) leukemia
# HCT-116 colon = system: HCT-116 colon
# SF-268 CNS = system: SF-268 CNS
# SW-620 colon = system: SW-620 colon
# SNB-75 CNS = system: SNB-75 CNS
# NCI-H23 lung = system: NCI-H23 lung
# HCT-15 colon = system: HCT-15 colon
# 786-0 renal = system: 786-0 renal
# NCI-H226 lung = system: NCI-H226 lung
# SK-MEL-2 melanoma = system: SK-MEL-2 melanoma
# A498 renal = system: A498 renal
# MALME-3M melanoma = system: MALME-3M melanoma
# DU-145 prostate = system: DU-145 prostate
# A549 NSCLC = system: A549 NSCLC
# ACHN renal = system: ACHN renal
# MDA-MB-435 = system: MDA-MB-435
# MOLT-4 leukemia = system: MOLT-4 leukemia
# CAKI-1 renal = system: CAKI-1 renal
# NCI-H522 lung = system: NCI-H522 lung
# HCC-2998 colon = system: HCC-2998 colon
# NCI-H460 lung = system: NCI-H460 lung
# U251 CNS = system: U251 CNS
# NCI/ADR-RES ovarian = system: NCI/ADR-RES ovarian
# SF-539 CNS = system: SF-539 CNS
# COLO 205 colon = system: COLO 205 colon
# SR leukemia = system: SR leukemia
# MDA-MB-231 breast = system: MDA-MB-231 breast
smiles,measurement,setting,value
Cc1ccsc1C(NC(=O)c1ccccc1)c1cc(Cl)c2cccnc2c1O (centres undefined),GI50,SN12C renal,0.971 µM
same,TGI,SN12C renal,14.7 µM
same,GI50,SF-295 CNS,0.333 µM
same,TGI,SF-295 CNS,12.2 µM
same,GI50,LOX IMVI melanoma,0.504 µM
same,TGI,LOX IMVI melanoma,2.32 µM
same,GI50,IGROV1 ovarian,0.55 µM
same,TGI,IGROV1 ovarian,4.77 µM
same,GI50,TK-10 renal,0.579 µM
same,TGI,TK-10 renal,12.6 µM
same,GI50,UO-31 renal,0.334 µM
same,TGI,UO-31 renal,2.51 µM
same,GI50,MCF7 breast,0.379 µM
same,TGI,MCF7 breast,16.2 µM
same,GI50,SK-MEL-5 melanoma,0.583 µM
same,TGI,SK-MEL-5 melanoma,5.14 µM
same,GI50,SNB-19 CNS,0.394 µM
same,TGI,SNB-19 CNS,15.7 µM
same,GI50,HOP-62 NSCLC,0.471 µM
same,TGI,HOP-62 NSCLC,5.68 µM
same,GI50,SK-MEL-28 melanoma,0.688 µM
same,TGI,SK-MEL-28 melanoma,18.9 µM
same,GI50,OVCAR-8 ovarian,0.405 µM
same,TGI,OVCAR-8 ovarian,24 µM
same,GI50,M14 melanoma,0.892 µM
same,TGI,M14 melanoma,9.43 µM
same,GI50,RXF 393 renal,1.77 µM
same,TGI,RXF 393 renal,6.08 µM
same,GI50,T-47D breast,0.426 µM
same,TGI,T-47D breast,7.3 µM
same,GI50,PC-3 prostate,0.45 µM
same,TGI,PC-3 prostate,16.6 µM
same,GI50,HT29 colon,0.548 µM
same,TGI,HT29 colon,20.7 µM
same,GI50,EKVX NSCLC,0.371 µM
same,TGI,EKVX NSCLC,10.9 µM
same,GI50,OVCAR-4 ovarian,0.479 µM
same,TGI,OVCAR-4 ovarian,12.8 µM
same,GI50,BT-549 breast,2.04 µM
same,TGI,BT-549 breast,21.3 µM
same,GI50,CCRF-CEM leukemia,0.48 µM
same,TGI,CCRF-CEM leukemia,39 µM
same,GI50,KM12 colon,0.493 µM
same,TGI,KM12 colon,16 µM
same,GI50,UACC-62 melanoma,0.339 µM
same,TGI,UACC-62 melanoma,5.22 µM
same,GI50,K-562 leukemia,0.381 µM
same,TGI,K-562 leukemia,> 100 µM
same,GI50,RPMI-8226 leukemia,0.475 µM
same,TGI,RPMI-8226 leukemia,16.3 µM
same,GI50,HOP-92 NSCLC,0.442 µM
same,TGI,HOP-92 NSCLC,7.45 µM
same,GI50,SK-OV-3 ovarian,0.617 µM
same,TGI,SK-OV-3 ovarian,7.96 µM
same,GI50,OVCAR-5 ovarian,2.67 µM
same,TGI,OVCAR-5 ovarian,42 µM
same,GI50,HS 578T breast,0.379 µM
same,TGI,HS 578T breast,19.7 µM
same,GI50,OVCAR-3 ovarian,0.354 µM
same,TGI,OVCAR-3 ovarian,12.1 µM
same,GI50,HL-60(TB) leukemia,0.808 µM
same,TGI,HL-60(TB) leukemia,5.07 µM
same,GI50,HCT-116 colon,0.431 µM
same,TGI,HCT-116 colon,13.1 µM
same,GI50,SF-268 CNS,0.6 µM
same,TGI,SF-268 CNS,12.1 µM
same,GI50,SW-620 colon,0.4 µM
same,TGI,SW-620 colon,15 µM
same,GI50,SNB-75 CNS,0.32 µM
same,TGI,SNB-75 CNS,14.9 µM
same,GI50,NCI-H23 lung,0.65 µM
same,TGI,NCI-H23 lung,17.5 µM
same,GI50,HCT-15 colon,0.266 µM
same,TGI,HCT-15 colon,16.6 µM
same,GI50,786-0 renal,1.19 µM
same,TGI,786-0 renal,11.4 µM
same,GI50,NCI-H226 lung,1.4 µM
same,TGI,NCI-H226 lung,7.35 µM
same,GI50,SK-MEL-2 melanoma,0.609 µM
same,TGI,SK-MEL-2 melanoma,8.75 µM
same,GI50,A498 renal,0.936 µM
same,TGI,A498 renal,7.29 µM
same,GI50,MALME-3M melanoma,1.1 µM
same,TGI,MALME-3M melanoma,13.9 µM
same,GI50,DU-145 prostate,0.869 µM
same,TGI,DU-145 prostate,14.2 µM
same,GI50,A549 NSCLC,0.764 µM
same,TGI,A549 NSCLC,13.6 µM
same,GI50,ACHN renal,0.45 µM
same,TGI,ACHN renal,11.2 µM
same,GI50,MDA-MB-435,0.505 µM
same,TGI,MDA-MB-435,17.2 µM
same,GI50,MOLT-4 leukemia,0.622 µM
same,TGI,MOLT-4 leukemia,34.6 µM
same,GI50,CAKI-1 renal,0.495 µM
same,TGI,CAKI-1 renal,14.9 µM
same,GI50,NCI-H522 lung,0.271 µM
same,TGI,NCI-H522 lung,2.11 µM
same,GI50,HCC-2998 colon,0.775 µM
same,TGI,HCC-2998 colon,16.2 µM
same,GI50,NCI-H460 lung,0.341 µM
same,TGI,NCI-H460 lung,2.03 µM
same,GI50,U251 CNS,0.318 µM
same,TGI,U251 CNS,10.4 µM
same,GI50,NCI/ADR-RES ovarian,0.284 µM
same,TGI,NCI/ADR-RES ovarian,7.18 µM
same,GI50,SF-539 CNS,0.479 µM
same,TGI,SF-539 CNS,10.4 µM
same,GI50,COLO 205 colon,0.318 µM
same,TGI,COLO 205 colon,10.6 µM
same,GI50,SR leukemia,0.398 µM
same,TGI,SR leukemia,12.3 µM
same,GI50,MDA-MB-231 breast,0.675 µM
same,TGI,MDA-MB-231 breast,18.7 µM
